In PubChem BioAssay (NCI):
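Following 48 hours of exposure in 96-well plates, responses at five concentrations were used to interpolate endpoints linearly. The concentration for 50% growth inhibition is given as GI50. TGI: concentration producing complete growth inhibition.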

Legend:
Assay in all cases: growth of human tumour cells (NCI), 48 h
UACC-257 melanoma = test system: UACC-257 melanoma
BT-549 breast = test system: BT-549 breast
DU-145 prostate = test system: DU-145 prostate
HS 578T breast = test system: HS 578T breast
M14 melanoma = test system: M14 melanoma
HT29 colon = test system: HT29 colon
KM12 colon = test system: KM12 colon
TK-10 renal = test system: TK-10 renal

Row | SMILES | TGI (UACC-257 melanoma) | TGI (BT-549 breast) | TGI (DU-145 prostate) | TGI (HS 578T breast) | TGI (M14 melanoma) | TGI (HT29 colon) | TGI (KM12 colon) | TGI (TK-10 renal) | GI50 (HS 578T breast) | GI50 (UACC-257 melanoma) | GI50 (BT-549 breast) | GI50 (DU-145 prostate) | GI50 (M14 melanoma) | GI50 (HT29 colon) | GI50 (KM12 colon) | GI50 (TK-10 renal)
1 | O=C(Nc1ccn(C2CC(I)C(COC(c3ccccc3)(c3ccccc3)c3ccccc3)O2)c(=O)n1)c1ccccc1 (stereo unspecified) | 20.4 µM | 67 µM | 21.5 µM | 21.5 µM | 13.8 µM | 21.5 µM | 24 µM | 21.5 µM |  |  |  |  |  |  |  | 
2 | O=c1c2ccccc2nc2n1CCc1c-2[nH]c2cc3c(cc12)OCO3 | > 25 µM |  |  | 17.5 µM | > 25 µM |  | > 25 µM | > 25 µM | 5.05 µM |  |  |  |  |  |  | 
3 | O=C(O)c1ccc(NCc2nc3ccccc3[nH]2)cc1 | > 100 µM | > 100 µM | > 100 µM | > 100 µM | > 100 µM | > 100 µM | > 100 µM | > 100 µM | > 100 µM | > 100 µM | > 100 µM | > 100 µM | > 100 µM | > 100 µM | > 100 µM | > 100 µM
4 | O=C(Nc1ccc(Oc2ccc(NC(=O)Nc3ccccc3Cl)cc2)cc1)Nc1ccccc1Cl | > 28.2 µM | 25 µM | > 100 µM | > 100 µM | > 100 µM | > 100 µM | > 100 µM | 45.1 µM | 17.8 µM |  | 5.06 µM | 4.53 µM | > 44.6 µM | > 21.4 µM | > 100 µM | 4.72 µM
5 | COc1ccc2nc3cc(Cl)ccc3c(NCCNCC(O)CO)c2c1 (stereo unspecified) | 12.9 µM | 20.8 µM | 11.4 µM | 21.1 µM | 10.9 µM | 6.91 µM | 10.7 µM | 12.4 µM | 3.75 µM | 3.94 µM | 6.69 µM | 1.88 µM | 2.79 µM | 0.726 µM | 1.66 µM | 3.11 µM
6 | Cc1cc(O[C@@H]2O[C@@H](C)[C@H](O)[C@@H](O)[C@H]2O)c2c3c(c(O[C@@H]4O[C@@H](C)[C@H](O)[C@@H](O)[C@H]4O)cc2c1)C(=O)c1c(O)cccc1C3=O | > 30 µM | > 30 µM | > 30 µM | > 30 µM | > 30 µM | > 30 µM | > 30 µM |  | > 30 µM | > 30 µM | > 30 µM | > 30 µM | > 30 µM | > 30 µM | > 30 µM | 
7 | CCC(CC)c1cc(N[C@H]2CC[C@H](N)C2)n2nccc2n1 | 5.87 µM | 3.22 µM | > 100 µM | 9.44 µM | 5.4 µM | > 100 µM | > 100 µM | > 100 µM | 2.27 µM | 1.84 µM | 1.36 µM | 0.708 µM | 1.74 µM | 0.735 µM | 1.7 µM | 3.58 µM
8 | CC1NC(C(=O)O)Cc2cc(O)c(O)cc21 (stereo unspecified) | > 100 µM | > 100 µM | > 100 µM | > 100 µM | > 100 µM | > 100 µM | > 100 µM | > 100 µM |  |  |  |  |  |  |  | 
9 | COC1=CC(c2ccc[nH]2)=N/C1=C\c1[nH]c(C)c(C(=O)Oc2ccccc2)c1C | 2.41 µM | 4.2 µM | > 100 µM | 0.828 µM |  |  | 1.69 µM | 2.55 µM | 0.205 µM | 0.545 µM | 0.384 µM | 0.295 µM |  |  | 0.118 µM | 0.336 µM
